Experimental findings from the Kinase Knowledgebase extract (Sharma et al. 2016) are described below.

By IC50 is commonly meant the concentration needed to halve the response being measured.

PIK3CD (Human), sequence (O00329 whole entry, looked up): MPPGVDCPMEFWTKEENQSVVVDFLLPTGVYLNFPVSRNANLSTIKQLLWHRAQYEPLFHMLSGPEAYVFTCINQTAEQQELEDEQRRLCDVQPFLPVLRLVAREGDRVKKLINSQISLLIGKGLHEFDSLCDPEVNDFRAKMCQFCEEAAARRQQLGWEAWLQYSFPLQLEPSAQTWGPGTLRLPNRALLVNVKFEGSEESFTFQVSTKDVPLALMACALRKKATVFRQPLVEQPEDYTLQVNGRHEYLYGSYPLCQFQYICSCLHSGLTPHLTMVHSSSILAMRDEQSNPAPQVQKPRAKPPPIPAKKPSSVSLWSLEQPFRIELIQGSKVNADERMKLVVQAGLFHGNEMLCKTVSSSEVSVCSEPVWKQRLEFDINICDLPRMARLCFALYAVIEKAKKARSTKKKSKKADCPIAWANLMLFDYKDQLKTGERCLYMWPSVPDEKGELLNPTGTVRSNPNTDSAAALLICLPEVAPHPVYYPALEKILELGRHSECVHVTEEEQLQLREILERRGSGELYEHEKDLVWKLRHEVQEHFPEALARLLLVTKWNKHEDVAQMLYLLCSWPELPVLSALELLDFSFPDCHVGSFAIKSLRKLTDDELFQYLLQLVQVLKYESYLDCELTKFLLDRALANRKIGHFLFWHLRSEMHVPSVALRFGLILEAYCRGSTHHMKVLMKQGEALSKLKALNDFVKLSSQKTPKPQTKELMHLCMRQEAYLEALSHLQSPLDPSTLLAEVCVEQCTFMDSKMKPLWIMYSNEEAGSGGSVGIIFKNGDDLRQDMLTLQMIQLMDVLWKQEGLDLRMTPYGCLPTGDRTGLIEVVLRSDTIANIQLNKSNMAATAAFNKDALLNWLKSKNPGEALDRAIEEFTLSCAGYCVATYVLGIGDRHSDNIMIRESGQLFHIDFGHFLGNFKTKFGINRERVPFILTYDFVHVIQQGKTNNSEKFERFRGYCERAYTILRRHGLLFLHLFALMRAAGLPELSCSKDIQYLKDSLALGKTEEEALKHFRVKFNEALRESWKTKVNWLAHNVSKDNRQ
PIK3CB (Human), sequence (P42338 whole entry, looked up): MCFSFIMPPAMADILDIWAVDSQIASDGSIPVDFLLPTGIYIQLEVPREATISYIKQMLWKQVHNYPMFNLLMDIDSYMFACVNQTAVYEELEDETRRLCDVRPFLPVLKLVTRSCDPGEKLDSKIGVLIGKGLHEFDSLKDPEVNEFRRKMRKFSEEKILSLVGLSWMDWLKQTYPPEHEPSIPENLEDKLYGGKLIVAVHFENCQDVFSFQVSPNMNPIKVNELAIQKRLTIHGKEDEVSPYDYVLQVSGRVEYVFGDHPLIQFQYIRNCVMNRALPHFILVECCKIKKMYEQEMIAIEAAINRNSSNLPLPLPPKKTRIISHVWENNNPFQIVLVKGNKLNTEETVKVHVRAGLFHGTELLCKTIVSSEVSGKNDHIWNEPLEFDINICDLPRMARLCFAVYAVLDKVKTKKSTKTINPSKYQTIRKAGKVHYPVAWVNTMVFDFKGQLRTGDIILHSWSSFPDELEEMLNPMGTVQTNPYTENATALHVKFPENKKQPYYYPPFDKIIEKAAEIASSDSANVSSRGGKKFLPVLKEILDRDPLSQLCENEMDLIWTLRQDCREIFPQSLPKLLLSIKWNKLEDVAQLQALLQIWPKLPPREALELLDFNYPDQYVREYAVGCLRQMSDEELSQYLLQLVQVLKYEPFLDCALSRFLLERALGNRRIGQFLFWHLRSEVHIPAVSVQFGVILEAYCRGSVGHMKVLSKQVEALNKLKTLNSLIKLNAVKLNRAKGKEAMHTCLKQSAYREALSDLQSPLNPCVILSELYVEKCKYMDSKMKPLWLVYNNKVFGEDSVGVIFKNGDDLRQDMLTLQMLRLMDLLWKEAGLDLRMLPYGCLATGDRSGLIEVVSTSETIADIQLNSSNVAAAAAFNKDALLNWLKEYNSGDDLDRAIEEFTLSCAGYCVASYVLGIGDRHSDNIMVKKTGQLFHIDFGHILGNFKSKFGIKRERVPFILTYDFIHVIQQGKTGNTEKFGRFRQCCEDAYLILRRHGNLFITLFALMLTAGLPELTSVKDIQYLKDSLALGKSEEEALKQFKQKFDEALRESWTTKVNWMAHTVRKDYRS

One assay has as its target PIK3CB (Human) (UniProt P42338). Kind of assay: Inhibition of PIK3CB Kinase Activity.
Take `CC(C)(C)OC(=O)CCNC(=O)Nc1nc2ccc(-c3cccc(S(C)(=O)=O)c3)cc2s1`: the IC50 is less than 1000 nM.
`CC(C)(C)OC(=O)CCNC(=O)Nc1nc2ccc(-c3cccc(S(=O)(=O)NCCO)c3)cc2s1` displayed an IC50 of less than 1000 nM.
In the case of `CN(C)S(=O)(=O)c1cccc(-c2ccc3nc(NC(=O)NCCC(=O)OC(C)(C)C)sc3c2)c1`, the IC50 was less than 1000 nM.
Still for that read-out and setting: the same measure for `CC(=O)Nc1nc2ccc(-c3cccc(S(=O)(=O)N(C)CCO)c3)cc2s1`: less than 1000 nM; for `CC(=O)Nc1nc2ccc(-c3cccc(S(C)(=O)=O)n3)cc2s1`: greater than 20000 nM.
Compound `CC(=O)Nc1nc2ccc(-c3cncc(S(N)(=O)=O)c3)cc2s1` returned a half-inhibitory concentration (IC50) of less than 1000 nM.
For the compound `COc1cc(-c2ccc3nc(NC(=O)NCC(=O)N4CCOCC4)sc3c2)ccc1O`, the half-inhibitory concentration (IC50) is less than 1000 nM.
Consider `COc1cc(-c2ccc3nc(NC(=O)NCCc4nc(C(C)C)no4)sc3c2)ccc1O`, for which the half-maximal inhibitory concentration (IC50) is less than 1000 nM.
On the same count and under the same terms, the same measure for `CC(C)c1noc(CCNC(=O)Nc2nc3ccc(-c4cccc(S(=O)(=O)NCCO)c4)cc3s2)n1`: less than 1000 nM.
Take `CCOC(=O)CCNC(=O)Nc1nc2ccc(-c3cccc(S(C)(=O)=O)c3)cc2s1`: the IC50 is less than 1000 nM.
Still for that read-out and setting: the same measure for `CS(=O)(=O)c1cccc(-c2ccc3nc(NC(=O)NCCC(=O)N4CCCC4)sc3c2)c1`: less than 1000 nM; for `CS(=O)(=O)c1cccc(-c2ccc3nc(NC=O)sc3c2)c1`: greater than 20000 nM.
For `CS(=O)(=O)c1cccc(-c2ccc3nc(NC(=O)NCCC(=O)N4CCOCC4)sc3c2)c1`, the IC50 is less than 1000 nM.
`CC(=O)Nc1nc2ccc(-c3cccc(S(=O)(=O)N4CCCC(N)C4)c3)cc2s1` (stereo not given) gave an IC50 of less than 1000 nM.
In turn, `CC(C)n1cnc(CCNC(=O)Nc2nc3ccc(-c4cccc(S(C)(=O)=O)c4)cc3s2)c1` had an IC50 of less than 1000 nM.
The same measure, in the same setting: the same measure for `COc1cc(-c2ccc3nc(NC(C)=O)sc3c2)ccc1O`: less than 1000 nM; for `COc1cc(-c2ccc3nc(NC(C)=O)cn3n2)ccc1O`: less than 1000 nM.
The same measure, in the same setting: the same measure for `CC(=O)Nc1nc2ccc(-c3cccc(C(=O)NCCO)c3)cc2s1`: greater than 20000 nM.

The target of another assay is PIK3CG (human) (UniProt P48736). The experiment in a line: Inhibition of PIK3CG Kinase Activity.
PIK3CG (human), sequence (P48736 whole entry, looked up): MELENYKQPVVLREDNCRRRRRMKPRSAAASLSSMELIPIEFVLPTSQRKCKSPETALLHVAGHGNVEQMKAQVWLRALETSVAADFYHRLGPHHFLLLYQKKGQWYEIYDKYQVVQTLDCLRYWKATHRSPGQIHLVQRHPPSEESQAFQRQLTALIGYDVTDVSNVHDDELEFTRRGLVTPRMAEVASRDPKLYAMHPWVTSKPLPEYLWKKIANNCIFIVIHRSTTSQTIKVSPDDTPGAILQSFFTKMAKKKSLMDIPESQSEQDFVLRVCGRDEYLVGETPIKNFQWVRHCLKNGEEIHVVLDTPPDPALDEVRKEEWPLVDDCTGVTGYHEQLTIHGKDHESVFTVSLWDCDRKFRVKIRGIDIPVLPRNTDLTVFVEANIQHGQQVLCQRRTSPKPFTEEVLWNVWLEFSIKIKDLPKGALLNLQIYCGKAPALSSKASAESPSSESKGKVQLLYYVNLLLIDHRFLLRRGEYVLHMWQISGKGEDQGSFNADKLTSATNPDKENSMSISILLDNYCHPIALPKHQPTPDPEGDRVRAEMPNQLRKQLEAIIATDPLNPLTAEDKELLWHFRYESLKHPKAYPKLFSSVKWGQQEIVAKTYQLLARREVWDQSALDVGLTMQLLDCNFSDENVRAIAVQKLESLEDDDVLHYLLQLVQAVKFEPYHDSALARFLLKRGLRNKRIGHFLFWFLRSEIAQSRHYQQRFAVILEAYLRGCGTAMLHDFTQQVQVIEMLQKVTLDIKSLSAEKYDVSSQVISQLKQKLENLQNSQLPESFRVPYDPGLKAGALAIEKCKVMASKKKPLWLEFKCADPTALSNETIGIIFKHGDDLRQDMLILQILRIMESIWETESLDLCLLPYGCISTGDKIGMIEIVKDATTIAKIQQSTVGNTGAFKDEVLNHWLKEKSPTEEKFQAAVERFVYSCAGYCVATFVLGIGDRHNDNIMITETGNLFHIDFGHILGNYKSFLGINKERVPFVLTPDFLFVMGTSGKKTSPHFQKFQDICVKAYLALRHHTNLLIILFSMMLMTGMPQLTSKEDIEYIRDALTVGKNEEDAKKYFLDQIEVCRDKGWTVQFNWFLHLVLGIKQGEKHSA
Consider `CC(=S)Nc1cn2nc(-c3cccc(S(C)(=O)=O)c3)ccc2n1`, for which the half-maximal inhibitory concentration (IC50) was less than 1000 nM.
The same measure, in the same setting: the same measure for `CC(=O)Nc1nc2ccc(-c3cccc(S(=O)(=O)NC4CCCOC4)c3)cc2s1` (stereo not given): less than 1000 nM; for `CC(C)(C)OC(=O)CCNC(=O)Nc1nc2ccc(-c3cccc(S(C)(=O)=O)c3)cc2s1`: less than 1000 nM.
With `CC(C)(C)OC(=O)CCNC(=O)Nc1nc2ccc(-c3cccc(S(=O)(=O)NCCO)c3)cc2s1`, the IC50 was less than 1000 nM.
Take `CN(C)S(=O)(=O)c1cccc(-c2ccc3nc(NC(=O)NCCC(=O)OC(C)(C)C)sc3c2)c1`: the IC50 is less than 1000 nM.
Regarding `CC(=O)Nc1nc2ccc(-c3cccc(S(=O)(=O)N(C)CCO)c3)cc2s1`, the IC50 was less than 1000 nM.
For the compound `CN(C)C(=O)CNC(=O)Nc1nc2ccc(-c3cccc(S(C)(=O)=O)c3)cc2s1`, the half-maximal inhibitory concentration (IC50) is less than 1000 nM.
On the same count and under the same terms, the same measure for `CC(=O)Nc1nc2ccc(-c3cccc(S(=O)(=O)N4CCOCC4)c3)cc2s1`: less than 1000 nM; for `CC(=O)Nc1nc2ccc(-c3ccc(O)c(F)c3)cc2s1`: less than 1000 nM; for `CS(=O)(=O)c1cccc(-c2ccc3nc(NC(=O)NCC(=O)N4CCOCC4)sc3c2)c1`: less than 1000 nM.
`CC(=O)Nc1nc2ccc(-c3cccc(S(=O)(=O)N(CCO)CCO)c3)cc2s1` had an IC50 of less than 1000 nM.
Regarding `CC(C)n1nnc(CCNC(=O)Nc2nc3ccc(-c4cccc(S(C)(=O)=O)c4)cc3s2)n1`, the IC50 was less than 1000 nM.
For the compound `CC(=O)Nc1nc2ccc(-c3cncc(S(N)(=O)=O)c3)cc2s1`, the IC50 was less than 1000 nM.
Still for that read-out and setting: the same measure for `COc1cc(-c2ccc3nc(NC(=O)NCC(=O)N4CCOCC4)sc3c2)ccc1O`: less than 1000 nM.
With `CC(=O)Nc1nc2ccc(-c3cccc(S(=O)(=O)N(C)C)c3)cc2s1`, the half-inhibitory concentration (IC50) is less than 1000 nM.
For `CC(=O)Nc1nc2ccc(-c3cccc(S(N)(=O)=O)c3)cc2s1`, the half-maximal inhibitory concentration (IC50) is less than 1000 nM.
Same read-out and setting: the same measure for `CC(=O)Nc1nc2ccc(-c3cccc(NS(C)(=O)=O)c3)cc2s1`: less than 1000 nM; for `CC(=O)Nc1nc2ccc(-c3cccc(S(=O)(=O)N4CCCC(O)C4)c3)cc2s1` (stereo not given): less than 1000 nM; for `CC(=O)Nc1nc2ccc(-c3cccc(S(=O)(=O)NC4CCCNC4)c3)cc2s1` (stereo not given): less than 1000 nM.
`CC(=O)Nc1nc2ccc(-c3cccc(C(N)=O)c3)cc2s1`: the IC50 is less than 1000 nM.
With `CC(C)c1noc(CCNC(=O)Nc2nc3ccc(-c4cccc(S(=O)(=O)NCCO)c4)cc3s2)n1`, the 50% inhibitory concentration (IC50) is less than 1000 nM.
On to `CCNS(=O)(=O)c1cccc(-c2ccc3nc(NC(C)=O)sc3c2)c1`, for which the IC50 was less than 1000 nM.
In turn, `CC(=O)Nc1nc2ccc(-c3cccc(S(C)(=O)=O)c3)cc2s1` came in with an IC50 of less than 1000 nM.
`CC(=O)Nc1nc2ccc(-c3cccc(S(=O)(=O)NC(CO)CO)c3)cc2s1` gave an IC50 of less than 1000 nM.
On the same count and under the same terms, the same measure for `CC(=O)Nc1nc2ccc(-c3cccc(S(=O)(=O)CCO)c3)cc2s1`: less than 1000 nM.
Still for that read-out and setting: the same measure for `CCOC(=O)CCNC(=O)Nc1nc2ccc(-c3cccc(S(C)(=O)=O)c3)cc2s1`: less than 1000 nM; for `CS(=O)(=O)c1cccc(-c2ccc3nc(NC(=O)NCCC(=O)N4CCCC4)sc3c2)c1`: less than 1000 nM.
The compound `CC(=O)Nc1nc2ccc(-c3cccc(S(=O)(=O)NCCCO)c3)cc2s1` displayed an IC50 of less than 1000 nM.
In the case of `CS(=O)(=O)c1cccc(-c2ccc3nc(NC(=O)NCCc4noc(-c5ccccc5)n4)sc3c2)c1`, the half-inhibitory concentration (IC50) was greater than 20000 nM.
Same read-out and setting: the same measure for `CC(=O)Nc1nc2ccc(-c3cccc(S(=O)(=O)NCCN4CCOCC4)c3)cc2s1`: less than 1000 nM; for `CS(=O)(=O)c1cccc(-c2ccc3nc(NC(=O)NCCC(=O)N4CCOCC4)sc3c2)c1`: less than 1000 nM; for `COc1cc(-c2ccc3nc(NC(=O)NCCC(=O)OC(C)(C)C)sc3c2)ccc1O`: less than 1000 nM.
The same measure, in the same setting: the same measure for `CC(=O)Nc1nc2ccc(-c3cccc(S(=O)(=O)N4CCC(O)CC4)c3)cc2s1`: less than 1000 nM; for `CC(=O)Nc1nc2ccc(-c3ccc(Cl)c(S(=O)(=O)NCCO)c3)cc2s1`: less than 1000 nM.
Consider `COC(=O)c1cccc(-c2ccc3nc(NC(C)=O)sc3c2)c1`, for which the IC50 is greater than 20000 nM.
Compound `CC(=O)Nc1nc2ccc(-c3cccc(S(=O)(=O)N4CCCC(N)C4)c3)cc2s1` (stereo not given) registered a half-inhibitory concentration (IC50) of less than 1000 nM.
`CC(=O)Nc1nc2ccc(-c3cccc(NS(=O)(=O)N(C)C)c3)cc2s1`: the 50% inhibitory concentration (IC50) was less than 1000 nM.
`CC(C)n1cnc(CCNC(=O)Nc2nc3ccc(-c4cccc(S(C)(=O)=O)c4)cc3s2)c1` had an IC50 of less than 1000 nM.
Take `COc1cc(-c2ccc3nc(NC(C)=O)sc3c2)ccc1O`: the IC50 was less than 1000 nM.
`CC(=O)Nc1cn2nc(-c3cccc(S(C)(=O)=O)c3)ccc2n1` showed an IC50 of less than 1000 nM.
The compound `COc1cc(-c2ccc3nc(NC(C)=O)cn3n2)ccc1O` yielded an IC50 of less than 1000 nM.
`CC(=O)Nc1nc2ccc(-c3cccc(S(=O)(=O)NCC(O)CO)c3)cc2s1` (stereo not given) yielded an IC50 of less than 1000 nM.
Still for that read-out and setting: the same measure for `CC(=O)Nc1nc2ccc(-c3ccncc3)cc2s1`: less than 1000 nM; for `CC(=O)Nc1cn2nc(-c3cccc(S(=O)(=O)NCCO)c3)ccc2n1`: less than 1000 nM; for `COCCNS(=O)(=O)c1cccc(-c2ccc3nc(NC(C)=O)sc3c2)c1`: less than 1000 nM.

The next assay concerns the target PIK3CD (Human) (UniProt O00329). Kind of assay: Inhibition of PIK3CD Kinase Activity.
For the compound `CC(=O)Nc1cn2cc(-c3cccc(S(C)(=O)=O)c3)ccc2n1`, the concentration for half-maximal inhibition (IC50) was less than 1000 nM.
On to `CC(=S)Nc1cn2nc(-c3cccc(S(C)(=O)=O)c3)ccc2n1`, for which the IC50 is less than 1000 nM.
In the case of `CC(=O)Nc1nc2ccc(-c3cccc(S(=O)(=O)NC4CCCOC4)c3)cc2s1` (stereo not given), the IC50 was less than 1000 nM.
Still for that read-out and setting: the same measure for `CS(=O)(=O)c1cccc(-c2ccc3nc(NC(=O)c4ccco4)sc3c2)c1`: greater than 20000 nM.
Still for that read-out and setting: the same measure for `CC(C)(C)OC(=O)CCNC(=O)Nc1nc2ccc(-c3cccc(S(C)(=O)=O)c3)cc2s1`: greater than 20000 nM.
`CC(=O)Nc1nc2ccc(-c3cccc(S(=O)(=O)N(C)CCO)c3)cc2s1`: the IC50 was less than 1000 nM.
The same measure, in the same setting: the same measure for `CN(C)C(=O)CNC(=O)Nc1nc2ccc(-c3cccc(S(C)(=O)=O)c3)cc2s1`: less than 1000 nM.
